Drawing on the Deep4Chem optical property database, this text covers photoluminescence quantum yield for 50 compounds.

The series in a line: photoluminescence quantum yield (fraction); solvent given as SMILES.
[1] abbreviates: in O=P(c1ccccc1)(c1ccccc1)c1ccccc1Oc1ccccc1P(=O)(c1ccccc1)c1ccccc1.

With `c1ccc(-c2nc(-c3ccccc3)c(-c3ccccc3)[nH]2)cc1`, the photoluminescence quantum yield runs as follows: (in CC#N) 0.27; (in CO) 0.27.
With `CC(C)c1cccc(C(C)C)c1-n1c(=O)c2ccc3c4ccc5c(=O)n(-c6c(C(C)C)cccc6C(C)C)c(=O)c6cc7c(-c8ccccc8)nc8cc(c1=O)c2c3c8c7c4c56`, for the setting “in ClC(Cl)Cl”, the photoluminescence quantum yield is 0.74.
`c1ccc(-c2nc(-c3ccccc3)nc(-c3ccc(N4c5ccccc5C5(c6ccccc6-c6ccccc65)c5ccccc54)cc3)n2)cc1`: the photoluminescence quantum yield under setting [1] came out at 0.801.
For the compound `COc1ccc(C)cc1C1=C2C=CC(=[N+](C)C)C=C2[Si](C)(C)c2cc(N(C)C)ccc21`, the photoluminescence quantum yield (in O) was found to be 0.28.
With `C(#Cc1ccc2ncsc2c1)c1ccc(N(c2ccc(C#Cc3ccc4ncsc4c3)cc2)c2ccc(C#Cc3ccc4ncsc4c3)cc2)cc1`, under “in Cc1ccccc1”, the photoluminescence quantum yield was 0.53.
Turning to `C=C[C@]12CC[C@H](CC1)N=N2`, the photoluminescence quantum yield (in CC#N) worked out at 0.0009.
`CC(C)(C)/C=C/C1=[N+]2C(=C(c3c4ccccc4cc4ccccc34)c3ccc(/C=C/C(C)(C)C)n3[B-]2(F)F)C=C1` registered a photoluminescence quantum yield (in ClC(Cl)Cl) of 0.58.
Consider `COc1ccc2c3cccc4c(OC)ccc(c5cccc1c52)c43`, for which the photoluminescence quantum yield was determined as 0.88 (in C1CCOC1); 0.76 (in Cc1ccccc1); 0.05 (in ClC(Cl)(Cl)Cl); 0.82 (in ClC(Cl)Cl); 0.94 (in ClCCl); 0.9 (in c1ccncc1).
For the compound `CCOC(=O)c1ccc2c(c1)[se]c1c3ccc(C(=O)OCC)cc3[se]c21`, the photoluminescence quantum yield (in CCCO) stood at 0.002.
Consider `COCCOCCOCCOc1ccc(/C=C/C2=[N+]3C(=C(c4cc(OC)cc(OC)c4)c4c(C)c(I)c(/C=C/c5ccc(OCCOCCOCCOC)cc5)n4[B-]3(F)F)C(C)=C2I)cc1`, for which the photoluminescence quantum yield is, setting by setting: (in C1CCOC1) 0.19; (in CS(C)=O) 0.17; (in ClCCl) 0.24.
Take `Cc1ccc(-c2cnc3ccc4ccccc4n23)cc1`: for the setting “in ClCCl”, the photoluminescence quantum yield amounted to 0.42.
With `COC1(OC)C2(Cl)c3nc4cc(-c5cccs5)ccc4nc3C1(Cl)C1C[C@H]3[C@@H](CC12)C1(Cl)c2nc4ccc(-c5cccs5)cc4nc2C3(Cl)C1(OC)OC` (stereo not given in full), the photoluminescence quantum yield was 0.57 (in CC#N); 0.22 (in CCOC(C)=O); 0.49 (in CO); 0.13 (in Cc1ccccc1); 0.35 (in ClC(Cl)Cl); 0.33 (in ClCCl).
For `CCCCC(CC)CN1C(=O)c2cc(Oc3ccc(C(C)(C)C)cc3)c3c4c(Cl)cc5c6c(cc(Cl)c(c7c(Oc8ccc(C(C)(C)C)cc8)cc(c2c37)C1=O)c64)C(=O)N(c1c(C(C)C)cccc1C(C)C)C5=O` (stereo not given), the photoluminescence quantum yield (in Cc1ccccc1) was found to be 0.72.
`COc1ccc(OC)cc1` gave a photoluminescence quantum yield (in C1CCCCC1) of 0.22.
`COC(=O)CNC(=O)CCNc1cccc2ccccc12`: for the setting “in CCO”, the photoluminescence quantum yield was 0.55.
Compound `CCCCCCCCCCCCN1C(=O)c2cccc3c(N(Cc4ccccn4)Cc4ccccn4)c4ccccc4c(c23)C1=O` had a photoluminescence quantum yield (in C1CCOC1) of 0.07; a photoluminescence quantum yield (in CCCCCC) of 0.06; a photoluminescence quantum yield (in CCO) of 0.1; a photoluminescence quantum yield (in Cc1ccccc1) of 0.06; a photoluminescence quantum yield (in ClCCl) of 0.12.
As to `Cc1ccc(C2=C3C=CC(Cl)=[N+]3[B-](F)(F)n3c(Cl)ccc32)cc1`, the photoluminescence quantum yield runs as follows: (in C1CCCCC1) 0.33; (in C1CCOC1) 0.3; (in CC#N) 0.29; (in CCOC(C)=O) 0.32; (in CO) 0.27; (in Cc1ccccc1) 0.59. The same compound yielded a photoluminescence quantum yield (in ClC(Cl)Cl) of 0.63.
Take `N#Cc1cccc(N2c3ccccc3C(c3ccccc3)(c3ccccc3)c3ccccc32)c1`: under “in Cc1ccccc1”, the photoluminescence quantum yield amounted to 0.1.
Regarding `CC(C)(C)c1ccc2oc(-c3ccc(-c4nc5cc(C(C)(C)C)ccc5o4)s3)nc2c1`, the photoluminescence quantum yield by setting is: (in C1CCCCC1) 0.8; (in C1CCOC1) 0.78; (in CC1CCCCC1) 0.66; (in CC#N) 0.76; (in CCCCO) 1; (in CCO) 1. Moreover, the photoluminescence quantum yield runs as follows: (in CN(C)C=O) 0.87; (in Cc1ccccc1) 1; (in Clc1ccccc1Cl) 0.96; (in c1ccccc1) 0.82.
In the case of `COc1ccc2c(c1)CCC1=C(C#Cc3ccc(Cl)cc3)O[B-](F)(F)[O+]=C12`, for the setting “in ClCCl”, the photoluminescence quantum yield turned out to be 0.72.
Under “in ClCCl”, `C[Si]1(C)O[Si](C)(C)c2cc3c(-c4ccccc4)c4cc(Cl)ccc4nc3cc21` gave a photoluminescence quantum yield of 0.34.
Under “in C1CCCCC1”, `CCCC1(CCC)c2cc(-c3ccc(OC)cc3)ccc2-c2ccc(-c3ccc4c(c3)C(CCC)(CCC)c3cc(-c5ccc(OC)cc5)ccc3-4)cc21` registered a photoluminescence quantum yield of 1.
Compound `C(#Cc1ccccc1)C(C#Cc1ccccc1)=Cc1ccc2cc(C=C(C#Cc3ccccc3)C#Cc3ccccc3)ccc2c1` registered a photoluminescence quantum yield (in ClC(Cl)Cl) of 0.49.
As for `c1ccc(-c2nc(-c3ccc(N4c5ccccc5Oc5ccccc54)cc3)nn2-c2ccc(N3c4ccccc4Oc4ccccc43)cc2)nc1`, the photoluminescence quantum yield (in ClCCl) is 0.11.
`COc1ccc(C2=C(Br)C(c3ccccc3)=[N+]3C2=Nc2c(-c4ccc(OC)cc4)c(Br)c(-c4ccccc4)n2[B-]3(F)F)cc1` showed a photoluminescence quantum yield (in Cc1ccccc1) of 0.01.
For `Cc1cnc(NC(=O)C2=C([O-])c3ccccc3S(=O)(=O)N2C)s1`, the photoluminescence quantum yield came to 0.00144 (in CC#N); 0.0114 (in CCCCO); 0.00864 (in CCCO); 0.00427 (in CCO); 0.00252 (in CO).
`COc1cc2c(cc1/C=C/C(=C(C#N)C#N)c1ccccc1)c1ccccc1n2C`: the photoluminescence quantum yield (in C1CCOC1) is 0.008; the photoluminescence quantum yield (in CC#N) is 0.014; the photoluminescence quantum yield (in CCO) worked out at 0.012; the photoluminescence quantum yield (in CCOC(C)=O) stood at 0.009; the photoluminescence quantum yield (in CN(C)C=O) turned out to be 0.022; the photoluminescence quantum yield (in CO) came out at 0.012. Moreover, the photoluminescence quantum yield reads like this: (in CS(C)=O) 0.033; (in Cc1ccccc1) 0.007; (in ClC(Cl)Cl) 0.018; (in ClCCl) 0.022.
In turn, `CCOC(=O)c1ccc(C2CC(c3cccc4ccccc34)=NN2c2ccc(F)cc2)cc1` (stereo not given) had a photoluminescence quantum yield (in ClCCl) of 0.191.
For the setting “in C1CCCCC1”, `COc1ccc(C2=C(c3ccc(OC)cc3)C(C)(C)c3cc(OC)ccc32)cc1` showed a photoluminescence quantum yield of 0.12.
For the setting “in C1CCOC1”, `CN(C)c1ccc(C2=C(c3ccccc3)c3sc4ccccc4[n+]3[B-](F)(F)O2)cc1` registered a photoluminescence quantum yield of 0.01.
On to `COc1ccc2c(C#N)cc3ccc4cc(C#N)c5ccc(OC)cc5c4c3c2c1`, for which the photoluminescence quantum yield (in ClC(Cl)Cl) came to 0.1.
Where the note is “in C1COCCO1”, `CCC1=C(C2=C(C3=C(CC)S(=O)(=O)c4cc(-c5ccc(C(C)=O)s5)ccc43)C(F)(F)C(F)(F)C2(F)F)c2ccc(-c3ccc(C(C)=O)s3)cc2S1(=O)=O` came in with a photoluminescence quantum yield of 0.
As to `c1ccc(Nc2nc(Nc3ccccc3)nc(Nc3cc4ccc5cccc6ccc(c3)c4c56)n2)cc1`, the photoluminescence quantum yield (in CC#N) was 0.19, the photoluminescence quantum yield (in CCCCOCCCC) came out at 0.21 and the photoluminescence quantum yield (in CO) was determined as 0.21.
The compound `CC1(C)CC(NCc2ccc3ccc4cccc5ccc2c3c45)CC(C)(C)N1[O]` yielded a photoluminescence quantum yield (in C1CCCCC1) of 0.07, a photoluminescence quantum yield (in CC#N) of 0.03, a photoluminescence quantum yield (in CO) of 0.04 and a photoluminescence quantum yield (in ClC(Cl)Cl) of 0.02.
For the compound `CN1c2cc3nc4cc(Cl)c(Cl)cc4nc3cc2N(C)C1(C)C`, the photoluminescence quantum yield (in CCO) is 0.7.
In the case of `CCCCn1c2c(-c3ccc(N(c4ccccc4)c4ccccc4)cc3)cc(C#N)cc2c2cc(C#N)cc(-c3ccc(N(c4ccccc4)c4ccccc4)cc3)c21`, the photoluminescence quantum yield (in ClCCl) was 0.6.
`CC(C)(C)c1ccc(-c2c(-c3ccc(N(c4ccccc4)c4ccccc4)cc3)cc(-c3ccc(N(c4ccccc4)c4ccccc4)cc3)c(-c3ccc(C(C)(C)C)cc3)c2-c2ccc(C(C)(C)C)cc2)cc1` had a photoluminescence quantum yield (in C1CCOC1) of 0.587.
As to `COc1ccc(-n2nc(C#N)c(N3CCCCCC3)n2)cc1`, where the note is “in CC#N”, the photoluminescence quantum yield worked out at 0.98.
Take `CCCC1=Cc2nc1ccc1[nH]c(cc1CCC)c1nc(c(OCc3ccc(C(=O)O)cc3)cc3[nH]c2cc3CCC)C(CCC)=C1`: under “in Cc1ccccc1”, the photoluminescence quantum yield worked out at 0.21.
On to `CC1(C)c2ccccc2N(c2ccc3c(c2)C(C)(C)c2cc(N4c5ccccc5C(C)(C)c5ccccc54)ccc2S3(=O)=O)c2ccccc21`, for which, under setting [1], the photoluminescence quantum yield stood at 0.8.
With `O=c1oc2ccccc2c2c1c(=O)oc1c3ccccc3cc(O)c12`, the photoluminescence quantum yield (in ClCCl) stood at 0.29.
Regarding `Cc1ccc(CN2/C(=C/C=C3\CCCC(/C=C/C4=[N+](Cc5ccc(C)cc5)c5ccccc5C4(C)C)=C3Cl)C(C)(C)c3ccccc32)cc1`, under “in CCO”, the photoluminescence quantum yield was 0.132.
`CC(=O)c1ccc(-c2ccc3c(c2)C(=O)c2cc(-c4ccc(C(C)=O)cc4)ccc2-3)cc1` gave a photoluminescence quantum yield (in C1CCOC1) of 0.03.
In turn, `COc1ccc(C2=Cc3ccc4ccccc4[n+]3[B-](F)(F)O2)cc1` registered a photoluminescence quantum yield (in ClC(Cl)Cl) of 0.94.
In turn, `COc1cc2c(cc1-c1ccncc1)Cc1c3c(c4c(c1-2)-c1cc(OC)c(-c2ccncc2)cc1C4)C(=O)N(CCC(C)C)C3=O` yielded a photoluminescence quantum yield (in C1CCOC1) of 0.42.
With `c1ccc2c(c1)Oc1ccccc1N2c1ccc2c(c1)c1ccccc1n1ccnc21`, the photoluminescence quantum yield under setting [1] is 0.27.
For `O=C([O-])c1c(Cl)c(Cl)c(Cl)c(Cl)c1-c1c2cc(Cl)c(=O)c(Cl)c-2oc2c(Cl)c(O)c(Cl)cc12`, the photoluminescence quantum yield (in O) came to 0.628.
Compound `CC(C)(C)c1ccc(-c2cc(-c3ccc(-c4cc(-c5ccc(C(C)(C)C)cc5)c(C(=O)N5CCOCC5)s4)s3)sc2C(=O)N2CCOCC2)cc1` yielded a photoluminescence quantum yield (in ClCCl) of 0.26.
The compound `CCc1ccc(-c2ccc(-c3nnc(-c4ccc(-c5nnc(-c6ccc(-c7ccc(CC)cc7)s6)o5)cc4)o3)s2)cc1` gave a photoluminescence quantum yield (in ClC(Cl)Cl) of 0.6.
In the case of `CCOC(=O)c1cc(C)n2nc(-c3ccccc3)ccc12`, the photoluminescence quantum yield (in CCCCCC) worked out at 0.434.
